This note sets out measurements from patent US9630939B2, “Derivative of homoserine lactone, and preparation method and use thereof” (priority 2013, dated 2017).

Data set [1] deals with C. violaceum CV026. Description: Preliminary screening of bacterial quorum sensing agonistic / inhibitory activity on LB plate (purple stain / white circle). The format is cell-based. Particulars: for Regulatory activity (bacterial quorum sensing): 1 μl of 0.065M compound spotted on LB plate with C. violaceum CV026, without (agonistic) or with inducer C6-HSL (inhibitory), 30° C., 16-18 h. The procedure: 1.1 Preparation work: different compounds to be tested (Compounds 1-29 prepared in Example 1-29 and intermediates 1-3) were weighted and then were dissolved in 200 μl DMSO (dimethyl sulfoxide) to prepare a solution at a concentration of 0.065M. 5.0 mg inducer, N-hexanoyl homoserine lactone (C6-HSL, purchased from Sigma Company), was weighted and was dissolved in 200 μl DMSO (at a concentration of 0.125M), and the compounds and the inducer were stored at 4[…] for further use. C. violaceum CV026 (donated by Professor McLean J C from Texas State University) in LB culture medium (LB culture medium consisting of 1% (percentage by mass) tryptone, 0.5% (percentage by mass) yeast extract, 1% (percentage by mass) NaCl and water) was cultured under shaking in a shaker at 30 °C, 200 rpm to get the culture medium for further use.
1.2 Method for preliminary screening of compounds having agonistic activity: 400 μl C. violaceum CV026 (at a bacterial concentration of 1×10^8/ml) was added to 5 ml melted semi-solid LB culture medium, and was mixed well; the mixed culture medium was poured into a solid LB plate; when the mixed culture medium was solidified on the plate, lattice was made thereon; 1 μl of the dissolved compounds to be tested (Compounds 1-29 in Examples 1-29, at a concentration of 0.065M) was spotted on the plate; when the compounds on the plate was dried in air, the plate was put in a 30° C. oven upside down and was cultured for a period of 16-18 h. If the compound to be tested has an agonistic effect on C. violaceum CV026 on the LB plate, purple stain will be induced on the LB plate. The agonistic activity of a compound is determined depending on whether purple stain is induced for C. violaceum CV026 on LB plate as well as the purple depth.
1.3 Method for preliminary screening of compounds having inhibitory activity: the inducer C6—HSL was diluted gradiently to 1000 times by means of 2-fold dilution; 15 μl diluted inducer and 400 μl C. violaceum CV026 in exponential phase (at a bacterial concentration of 1×10^8/ml) were mixed well and then were added to a 5 ml melted semi-solid LB culture medium; the mixture of inducer, C. violaceum, and semi-solid LB was poured onto a solid LB plate; when the mixture was solidified on the plate, lattice was made thereon; 1 μl of the dissolved compounds to be tested (Compounds 1-29 prepared in Example 1-29 and intermediates 1-3, at a concentration of 0.065M) was spotted on the plate; when the compounds on the plate were dried in air, the plate was put in a 30° C. oven upside down and was cultured for a period of 16-18 h. […] The inhibitory activity of a compound is preliminary determined depending on the size of the white circle appeared after C. violaceum CV026 was inhibited on LB plate.

For data set [2], the system named is C. violaceum CV026. The experiment in a line: Measurement of IC50 of compounds having an inhibitory effect on C. violaceum quorum sensing (purple pigment absorbance at 585 nm). It is filed as cell-based. As to conditions: Chromobacterium violaceum, read-out: IC50 of compounds having bacterial quorum sensing inhibitory activity. As for the experimental part: 2.1 The wells of a 12-well plate were marked as initial concentration, 2, 4, 8, 16, 32, 64, 128, 256, DMSO group, and a blank control group from left to right and from up to bottom, respectively.
2.2 The monoclonal C. violaceum CV026 grew on LB solid plate was cultured to exponational phase in a 5 ml fresh LB liquid culture medium, 50 μl was then taken for seeding in a 5 ml LB culture medium, and was cultured until the optical density OD value was about 1.0 at 585 nm; the culture was then mixed well with LB culture medium at a ratio of 1:9 by volume (with OD of about 0.15), and was added to a 12-well plate in an amount of 2 ml/well.
2.3 The compounds preliminarily screened to have quorum sensing inhibitory activity were dissolved respectively in DMSO (at a concentration of 0.065M), and then 10 μl was taken into 10 μl DMSO solution to achieve the purpose of 2-fold dilution, and so on. Each compound was gradiently diluted to a highest fold of 256 (gradient dilution of 2, 4, 8, 16, 32, 64, 128, 256 fold).
2.4 To each well, 15 μl 1000-fold diluted inducer C6—HSL (initial concentration of 0.125M) and 8 μl compound solution at each diluted gradient was added; to DMSO control group, 8 μl DMSO was added; to a blank control group, 8 μl LB culture medium was added. Finally, it was ensured that 2 ml culture in each of the 12-well plate was mixed well.
2.5 The 12-well plate was placed in a 30° C. shaker at 130 rpm and was cultured for 10-12 h.
2.6 After the culture was finished, 1 ml culture was taken from each well and was put in a 1.5 ml EP tube and then was centrifugated at 12000 rpm for 10 mins. The supernatant of the culture was sucked out, and 500 μl DMSO was added to each EP tube to dissolve the purple pigment in the culture. After the pigment was completely dissolved, centrifugation was performed at 12000 rpm for 10 mins. 200 μl supernatant pigment was put in a 96-well culture plate, and was measured for absorbance value at 585 nm by a Microplate Reader, […] the absorbance value and the corresponding concentration were plotted to get the IC50 value.

SMILES strings stand for the structures.

What is called melting point is the temperature of the solid-liquid transition. On to `CCCc1ccc(C(=O)Nc2ccc(S(=O)(=O)N[C@H]3CCOC3=O)cc2)cc1`, for which the melting point is 247 to 249 °C.

Regarding `N#Cc1ccc(C(=O)Nc2ccc(S(=O)(=O)N[C@H]3CCOC3=O)cc2)cc1`, the melting point fell in the range of 230 to 231 °C. `O=C(Cc1ccccc1)Nc1ccc(S(=O)(=O)N[C@H]2CCOC2=O)cc1` registered a melting point of 157 to 158 °C. In the case of `CCOc1ccc(C(=O)Nc2ccc(S(=O)(=O)N[C@H]3CCOC3=O)cc2)cc1`, the melting point was in the range of 256 to 258 °C. For the compound `O=C(Nc1ccc(S(=O)(=O)N[C@H]2CCOC2=O)cc1)c1ccc([N+](=O)[O-])cc1`, the melting point was 257 to 258 °C.

Compound `CCCCCCCCC(=O)Nc1ccc(S(=O)(=O)N[C@H]2CCOC2=O)cc1` showed a melting point of 150 to 152 °C. `CCC(=O)Nc1ccc(S(=O)(=O)N[C@H]2CCOC2=O)cc1` [Compound 1, (S)-N-(4-(N-(2-oxotetrahydrofuran-3-yl)sulfamoyl)phenyl) propanamide]: the melting point was in the range of 179 to 181 °C. For the same compound, the “Regulatory activity (bacterial quorum sensing)” value (shortened to “Regulatory activity”) in the data set with C. violaceum CV026 [1] is “−”. The matching figures for `CCCC(=O)Nc1ccc(S(=O)(=O)N[C@H]2CCOC2=O)cc1` [Compound 2, (S)-N-(4-(N-(2-oxotetrahydrofuran-3-yl)sulfamoyl)phenyl)butyrylamide]: 180 to 182 °C and “−”. The matching figures for `CCCCC(=O)Nc1ccc(S(=O)(=O)N[C@H]2CCOC2=O)cc1` [Compound 3, (S)-N-(4-(N-(2-oxotetrahydrofuran-3-yl)sulfamoyl)phenyl)pentanamide]: 174 to 176 °C and “−”.

As a reminder, the IC50 is the midpoint of a concentration-inhibition curve. Compound `CCCCCC(=O)Nc1ccc(S(=O)(=O)N[C@H]2CCOC2=O)cc1` [Compound 4, (S)-N-(4-(N-(2-oxotetrahydrofuran-3-yl)sulfamoyl)phenyl)hexanamide] displayed a melting point of 142 to 143 °C. Further, the “Regulatory activity” value in the data set on C. violaceum CV026 [1] is “−”. Besides, in the data set with C. violaceum CV026 [2], the half-maximal inhibitory concentration (IC50) amounted to 29 ± 2.41 µM. Turning to `CCCCCCC(=O)Nc1ccc(S(=O)(=O)N[C@H]2CCOC2=O)cc1` [Compound 5, (S)-N-(4-(N-(2-oxotetrahydrofuran-3-yl)sulfamoyl)phenyl)heptamide], the melting point is 143 to 144 °C. Further, the “Regulatory activity” value in the data set with C. violaceum CV026 [1] is “−”.

With `CCCCCCCC(=O)Nc1ccc(S(=O)(=O)N[C@H]2CCOC2=O)cc1` [Compound 6, (S)-N-(4-(N-(2-oxotetrahydrofuran-3-yl)sulfamoyl)phenyl)octanamide], the melting point is 146 to 148 °C. Also, in the data set with C. violaceum CV026 [1], the “Regulatory activity” value was “−”.

As for `O=C(Nc1ccc(S(=O)(=O)N[C@H]2CCOC2=O)cc1)c1ccccc1` [Compound 9, (S)-N-(4-(N-(2-oxotetrahydrofuran-3-yl)sulfamoyl)phenyl)benzamide], the “Regulatory activity” value in the data set with C. violaceum CV026 [1] is “−”. The IC50 in the data set on C. violaceum CV026 [2] worked out at 17.2 ± 2.6 µM.

`O=C(Nc1ccc(S(=O)(=O)N[C@H]2CCOC2=O)cc1)c1ccc(Br)cc1` [Compound 12, (S)-4-bromo-N-(4-(N-(2-oxotetrahydrofuran-3-yl)sulfamoyl)phenyl)benzamide] yielded a melting point of 112 to 113 °C. In the data set on C. violaceum CV026 [1], the “inhibitory or agonizing effect on bacterial quorum sensing (in words)” value was “both an agonizing effect and an inhibitory effect”; the “Regulatory activity” value is recorded as “±”. Consider `O=C(Nc1ccc(S(=O)(=O)N[C@H]2CCOC2=O)cc1)c1ccc(Cl)cc1` [Compound 14, (S)-4-chloro-N-(4-(N-(2-oxotetrahydrofuran-3-yl)sulfamoyl)phenyl)benzamide], for which, in the data set on C. violaceum CV026 [1], the “Regulatory activity” value is reported as “−”. For the compound `O=C(Nc1ccc(S(=O)(=O)N[C@H]2CCOC2=O)cc1)c1ccc(CCl)cc1` [Compound 15, (S)-4-(chloromethyl)-N-(4-(N-(2-oxotetrahydrofuran-3-yl)sulfamoyl)phenyl)benzamide], the melting point fell in the range of 251 to 253 °C. Besides, in the data set on C. violaceum CV026 [1], the “inhibitory or agonizing effect on bacterial quorum sensing (in words)” value is listed as “agonizing effect” and the “Regulatory activity” value is reported as “+”. The compound `CC(C)(C)c1ccc(C(=O)Nc2ccc(S(=O)(=O)N[C@H]3CCOC3=O)cc2)cc1` [Compound 16, (S)-4-(tert-butyl)-N-(4-(N-(2-oxotetrahydrofuran-3-yl)sulfamoyl)phenyl)benzamide] had a melting point of 207 to 208 °C. Also, the “Regulatory activity” value in the data set with C. violaceum CV026 [1] is given as “−”. Take `O=C(Nc1ccc(S(=O)(=O)N[C@H]2CCOC2=O)cc1)c1ccc(F)cc1` [Compound 17, (S)-4-fluoro-N-(4-(N-(2-oxotetrahydrofuran-3-yl)sulfamoyl)phenyl)benzamide]: the melting point was in the range of 236 to 237 °C. Moreover, the “Regulatory activity” value with C. violaceum CV026 [1] is recorded as “−”. For the same compound, in the data set with C. violaceum CV026 [2], the half-inhibitory concentration (IC50) is 14.7 ± 2.58 µM. `Cc1cccc(C(=O)Nc2ccc(S(=O)(=O)N[C@H]3CCOC3=O)cc2)c1` [Compound 20, (S)-3-methyl-N-(4-(N-(2-oxotetrahydrofuran-3-yl)sulfamoyl)phenyl)benzamide] returned a melting point of 193 to 194 °C. Besides, the “Regulatory activity” value with C. violaceum CV026 [1] is “−”.

In turn, `O=C(Nc1ccc(S(=O)(=O)N[C@H]2CCOC2=O)cc1)c1cccc(Cl)c1` [Compound 22, (S)-3-chloro-N-(4-(N-(2-oxotetrahydrofuran-3-yl)sulfamoyl)phenyl)benzamide] gave a melting point of 213 to 214 °C. Also, the “Regulatory activity” value with C. violaceum CV026 [1] is “−”.

`O=C(Nc1ccc(S(=O)(=O)N[C@H]2CCOC2=O)cc1)c1cccc(F)c1` [Compound 23, (S)-3-fluoro-N-(4-(N-(2-oxotetrahydrofuran-3-yl)sulfamoyl)phenyl)benzamide]: the “Regulatory activity” value in the data set on C. violaceum CV026 [1] was “−”. Further, the half-maximal inhibitory concentration (IC50) with C. violaceum CV026 [2] is 7.79 ± 2.68 µM. Turning to `O=C(Nc1ccc(S(=O)(=O)N[C@H]2CCOC2=O)cc1)c1ccccc1F` [Compound 24, (S)-2-fluoro-N-(4-(N-(2-oxotetrahydrofuran-3-yl)sulfamoyl)phenyl)benzamide], in the data set with C. violaceum CV026 [1], the “Regulatory activity” value is given as “−”. The IC50 in the data set on C. violaceum CV026 [2] is 1.64 ± 0.27 µM. For `O=C(Nc1ccc(S(=O)(=O)N[C@H]2CCOC2=O)cc1)c1ccccc1Cl` [Compound 28, (S)-2-chloro-N-(4-(N-(2-oxotetrahydrofuran-3-yl)sulfamoyl)phenyl)benzamide], in that order: “−” and 1.66 ± 0.33 µM. On to `Br.NC1CCOC1=O` (stereo not drawn) [Intermediate 1, (L)-homoserine lactone hydrobromide], for which the “Regulatory activity” value with C. violaceum CV026 [1] is reported as “+”.

Consider `CC(=O)Nc1ccc(S(=O)(=O)N[C@H]2CCOC2=O)cc1` [Intermediate 2, (S)-N-(4-(N-(2-oxotetrahydrofuran-3-yl)sulfamoyl)phenyl)acetamide], for which, in the data set with C. violaceum CV026 [1], the “Regulatory activity” value is “−”.
